Measurements taken from patent US10112941B2, “Tricyclic compounds as anticancer agents” (BRISTOL-MYERS SQUIBB COMPANY, priority 2013, dated 2018).
pIC50: −log10 of the molar value.

target: BRD4 (Homo sapiens, UniProt O60885); test: Time Resolved Fluorescence Resonance Energy Transfer (TR-FRET) binding assay, BRD4; settings: one of the FRET assays described; read-out: FRET BRD4 IC50

C=C(C)c1ccc2c3ncc(-c4c(C)nnn4C)cc3n([C@H](c3ccccc3)C3CCOCC3)c2c1 [Example 420, 1,4-Dimethyl-5-{5-[(S)-oxan-4-yl(phenyl)methyl]-7-(prop-1-en-2-yl)-5H-pyrido[3,2-b]indol-3-yl}-1H-1,2,3-triazole] was tested. Which pIC50 did it give?
Its pIC50 is greater than 8.30.

With [2H]C([2H])([2H])c1nnn(C)c1-c1cnc2c3c(OC)cc(S(C)(=O)=O)cc3n([C@H](c3ccc(F)cc3)C3CCOCC3)c2c1 [Example 202, 5-{5-[(S)-(4-Fluorophenyl)(oxan-4-yl)methyl]-7-methanesulfonyl-9-methoxy-5H-pyrido[3,2-b]indol-3-yl}-4-(^2H3)methyl-1-methyl-1H-1,2,3-triazole] as the molecule, how does the pIC50 read?
The pIC50 was greater than 8.30.

With COc1nnn(C)c1-c1cnc2c3ccc(C(C)(O)C4CC4)c(F)c3n([C@H](c3ccccc3)C3CCOCC3)c2c1 (stereo partly drawn) [Example 439, 1-Cyclopropyl-1-[6-fluoro-3-(4-methoxy-1-methyl-1H-1,2,3-triazol-5-yl)-5-[(S)-oxan-4-yl(phenyl)methyl]-5H-pyrido[3,2-b]indol-7-yl]ethan-1-ol] as the molecule, how does the pIC50 read?
Its pIC50 is greater than 8.30.

With Cc1nnn(C)c1-c1cnc2c3ccc(C(C)(C)O)cc3n([C@H](c3ccccc3F)C3CCOCC3)c2c1 [Example 76] as the molecule, how does the pIC50 read?
Its pIC50 is greater than 8.30.

How did the pIC50 turn out when [2H][C@@](c1ccccc1F)(C1CCOCC1)n1c2cc(C(C)(C)O)ccc2c2ncc(-c3c(C)nnn3C)cc21 [Example 92, 2-[3-(Dimethyl-1H-1,2,3-triazol-5-yl)-5-[(S)-oxan-4-yl(2-fluorophenyl)(^2H)methyl]-5H-pyrido[3,2-b]indol-7-yl]propan-2-ol] was run?
The pIC50 was greater than 8.30.

With Cc1noc(C)c1-c1cnc2c3ccc(C(C)(C)O)cc3n(C(c3ncccc3F)C3CCOCC3)c2c1 (single isomer, unassigned) [Example 346, 2-[3-(Dimethyl-1,2-oxazol-4-yl)-5-[(3-fluoropyridin-2-yl)(oxan-4-yl)methyl]-5H-pyrido[3,2-b]indol-7-yl]propan-2-ol] as the molecule, how does the pIC50 read?
Its pIC50 is greater than 8.30.

How did the pIC50 turn out when Cc1nnn(C)c1-c1cnc2c3ccc(C(C)(C)O)cc3n(C(c3ccc(F)cc3)C3CCC3)c2c1 (single isomer, unassigned) [Example 251, 2-{5-[Cyclobutyl(4-fluorophenyl)methyl]-3-(dimethyl-1H-1,2,3-triazol-5-yl)-5H-pyrido[3,2-b]indol-7-yl}propan-2-ol] was run?
Its pIC50 is greater than 8.30.

[2H]C([2H])([2H])c1nnn(C)c1-c1cnc2c3ccc(C(C)(C)O)cc3n(C(c3ncccc3Cl)C3CCOCC3)c2c1 (single isomer, unassigned) [Example 321] was tested. Which pIC50 did it give?
Its pIC50 is greater than 8.30.

How did the pIC50 turn out when Cc1nnn(C)c1-c1cnc2c3ccc(C(C)(C)O)cc3n(C(c3ncccc3F)C3CCOCC3)c2c1 (single isomer, unassigned) [Example 294] was run?
The pIC50 was greater than 8.30.

Cc1nnn(C)c1-c1cnc2c3ccc(C(C)(C)O)cc3n([C@@H](c3ccccc3)C3CCOCC3)c2c1 [Example 91, 2-[3-(dimethyl-1H-1,2,3-triazol-5-yl)-5-[(R)-oxan-4-yl(phenyl)(^2H)methyl]-5H-pyrido[3,2-b]indol-7-yl]propan-2-ol] was tested. Which pIC50 did it give?
The pIC50 was greater than 7.60.

Cc1nnn(C)c1-c1cnc2c3c(F)cc(C(C)(C)O)cc3n(C(c3cc(F)ccc3F)C3CCOCC3)c2c1 (single isomer, unassigned) [Example 106, 2-{5-[(2,5-Difluorophenyl)(oxan-4-yl)methyl]-3-(dimethyl-1H-1,2,3-triazol-5-yl)-9-fluoro-5H-pyrido[3,2-b]indol-7-yl}propan-2-ol] was tested. Which pIC50 did it give?
Its pIC50 is greater than 8.30.

With [2H]C([2H])([2H])c1nnn(C)c1-c1cnc2c3ccc(C(C)(C)O)cc3n(C(c3ccc(Cl)cn3)C3CCOCC3)c2c1 (single isomer, unassigned) [Example 320] as the molecule, how does the pIC50 read?
The pIC50 was greater than 8.30.

With Cc1nnn(C)c1-c1cnc2c3ccc(C(C)(C)O)cc3n(C(c3ccc(Cl)cc3)C3CCOCC3)c2c1 (single isomer, unassigned) [Example 399] as the molecule, how does the pIC50 read?
The pIC50 was greater than 8.30.

Cc1noc(C)c1-c1cnc2c3ccc(C(C)(C)O)cc3n([C@H](c3ccc(F)cc3)C3CCOC(C)(C)C3)c2c1 (stereo partly shown) [Example 17] was tested. Which pIC50 did it give?
Its pIC50 is greater than 7.60.

How did the pIC50 turn out when Cc1cc(C(C2CCOCC2)n2c3cc(C(C)(C)O)ccc3c3ncc(-c4c(C)noc4C)cc32)no1 (single isomer, unassigned) [Example 306] was run?
The pIC50 was greater than 8.30.

Cc1noc(C)c1-c1cnc2c3ccc(C(=O)O)cc3n(C(c3ccccc3)c3ccccc3)c2c1 [Example 45, 3-(Dimethyl-1,2-oxazol-4-yl)-5-(diphenylmethyl)-5H-pyrido[3,2-b]indole-7-carboxylic acid] was tested. Which pIC50 did it give?
Its pIC50 is greater than 8.30.

How did the pIC50 turn out when Cc1noc(C)c1-c1cnc2c3ccc(C(C)(C)O)cc3n(C(c3ccccc3)C3CCC(F)(F)CC3)c2c1 (single isomer, unassigned) [Example 27, 2-{5-[(4,4-Difluorocyclohexyl)(phenyl)methyl]-3-(dimethyl-1,2-oxazol-4-yl)-5H-pyrido[3,2-b]indol-7-yl}propan-2-ol] was run?
The pIC50 was greater than 8.30.

How did the pIC50 turn out when [2H]C([2H])([2H])c1nnn(C)c1-c1cnc2c3ccc(S(C)(=O)=O)cc3n(C(c3cc(C)on3)C3CCOCC3)c2c1 (stereo not shown) [Example 331, 5-{7-Methanesulfonyl-5-[(5-methyl-1,2-oxazol-3-yl)(oxan-4-yl)methyl]-5H-pyrido[3,2-b]indol-3-yl}-4-(^2H3)methyl-1-methyl-1H-1,2,3-triazole] was run?
The pIC50 was greater than 8.30.

Cc1nnn(C)c1-c1cnc2c3cc(F)c(C(C)(O)C4CC4)cc3n([C@H](c3ccccc3)C3CCOCC3)c2c1 (single isomer, unassigned) [Example 443] was tested. Which pIC50 did it give?
Its pIC50 is greater than 8.30.

How did the pIC50 turn out when Cc1noc(C)c1-c1cnc2c3ccc(C(C)(C)O)cc3n(C(c3ccc(F)cc3F)C3CCOCC3)c2c1 (single isomer, unassigned) [Example 125, 2-{5-[(2,4-Difluorophenyl)(oxan-4-yl)methyl]-3-(dimethyl-1,2-oxazol-4-yl)-5H-pyrido[3,2-b]indol-7-yl}propan-2-ol] was run?
The pIC50 was greater than 8.30.

How did the pIC50 turn out when Cc1nnn(C)c1-c1cnc2c3ccc(C(C)(C)O)cc3n(C(c3cccc(Cl)c3)C3CCOCC3)c2c1 (single isomer, unassigned) [Example 400] was run?
The pIC50 was greater than 8.30.

How did the pIC50 turn out when CC(=O)NC(C)(C)c1ccc2c3ncc(-c4c(C)nnn4C)cc3n([C@H](c3ccccc3)C3CCOCC3)c2c1F [Example 462, N-{2-[3-(Dimethyl-1H-1,2,3-triazol-5-yl)-6-fluoro-5-[(S)-oxan-4-yl(phenyl)methyl]-5H-pyrido[3,2-b]indol-7-yl]propan-2-yl}acetamide] was run?
Its pIC50 is greater than 8.30.

[2H]C([2H])([2H])c1nnn(C)c1-c1cnc2c3c(OCC(F)F)ccc(S(C)(=O)=O)c3n(C(c3ncccc3F)C3CCOCC3)c2c1 (stereo not shown) [Example 246, 2-{[9-(2,2-Difluoroethoxy)-6-methanesulfonyl-3-[4-(^2H3)methyl-1-methyl-1H-1,2,3-triazol-5-yl]-5H-pyrido[3,2-b]indol-5-yl](oxan-4-yl)methyl}-3-fluoropyridine] was tested. Which pIC50 did it give?
The pIC50 was greater than 5.82.

Cc1noc(C)c1-c1cnc2c3ccc(C(C)(C)O)cc3n([C@H](CCC(F)(F)F)c3ccccc3C(F)(F)F)c2c1 [Example 84] was tested. Which pIC50 did it give?
Its pIC50 is greater than 5.82.

Cc1nnn(C)c1-c1cnc2c3ccc(C(C)(O)C4CC4)c(F)c3n([C@H](c3ccccc3)C3CCOCC3)c2c1 (stereo partly drawn) [Example 415, 1-Cyclopropyl-1-{6-fluoro-3-[4-(^2H3)methyl-1-methyl-1H-1,2,3-triazol-5-yl]-5-[(S)-oxan-4-yl(phenyl)methyl]-5H-pyrido[3,2-b]indol-7-yl}ethan-1-ol] was tested. Which pIC50 did it give?
Its pIC50 is greater than 8.30.
